US20130274281A1, “METHODS OF TREATING METASTATIC BREAST CANCER WITH 4-IODO-3-NITROBENZAMIDE AND IRINOTECAN” (BiPar Sciences, Inc., priority 2010, published 2013)

Legend:
advanced solid tumors [1] = format: in vivo, human
Experimental: Phase 1: 4-iodo-3-nitrobenzamide is administered intravenously twice weekly (days 1 and 4 of each week) for 3 weeks, followed by a one week 4-iodo-3-nitrobenzamide treatment-free period per one 28-day cycle. Cycle one (day 1 through day 28) is defined as the Safety Phase of the study during which DLTs is assessed and the MTD is determined. The remainder of the study is termed the Maintenance Phase. A subject may participate in this study until he/she experiences a drug intolerance or disease progression. […] For non-measurable disease, best medical practices are used to determine disease progression.
In cohort A (starting dose), a single subject receives 4-iodo-3-nitrobenzamide twice weekly at a dose level of 0.5 mg/kg based on weight measured at screening. If this subject experiences a grade 2 toxicity or higher, then 3 additional subjects would be enrolled in this cohort (only 2 additional subjects would be enrolled in this cohort if the initial subject receives at least 80% of the planned cycle 1 doses). If no additional subjects dosed in this cohort experience a DLT, then dose escalation would occur as below. If no DLT occurs in the initial subject, dose escalation would occur as below. The safety review group has the ability to recommend dose escalation (opening of a new cohort), without expansion with additional subjects, for cases of grade 2 toxicity seen in a single subject that are deemed not to be clinically relevant and/or study treatment-related. Dose Escalation Prior to Grade 2 Toxicity (Potential Cohorts B-J): Until a subject experiences a grade 2 toxicity or higher, one subject would be initially enrolled in all subsequent cohorts at planned 100% dose level increases, with possible cohort expansion as described for cohort A. Safety data are reviewed after 6 doses of 4-iodo-3-nitrobenzamide, and a decision to escalate to the next cohort would be made if no subject experiences a grade 2 toxicity or higher. […]

advanced solid tumors [2] = assay: 4-iodo-3-nitrobenzamide in combination with cytotoxic chemotherapeutic agents, safety and best response; format: in vivo, human
Experimental: 42 subjects (advanced solid tumors) were treated with 4-iodo-3-nitrobenzamide in combination with cytotoxic chemotherapeutics agents (topotecan, temozolomide, gemcitabine, or carboplatin/taxol) at 4-iodo-3-nitrobenzamide doses of 1.1, 2.0, 2.8, 4.0 and 5.6 mg/kg.

Bcr-ab1 = settings: background statement; read-out: IC50, inhibition of Bcr-ab1 phosphorylation; cited from earlier work
[3] = test system: panel of 63 other kinases, including native c-Ab1; settings: background statement; cited from earlier work
[4] = test system: cells not expressing Bcr-Ab1; settings: background statement; cited from earlier work

| Structure (SMILES) | best response measured to date (advanced solid tumors [1]; 24 subjects, monotherapy 0.5-8.0 mg/kg) | dose limiting toxicities (DLTs) (advanced solid tumors [1]; in vivo) | cycles of treatment completed with continued stable disease (advanced solid tumors [1]; one subject, monotherapy) [cycles] | tolerability (advanced solid tumors [2]; 42 subjects, advanced solid tumors, with topotecan, temozolomide, gemcitabine or carboplatin/taxol, BA 1.1, 2.0, 2.8, 4.0 and 5.6 mg/kg, preliminary safety data) | relation of serious adverse events to study drug (advanced solid tumors [2]; 42 subjects, combination with cytotoxic agents, judged by study investigators) | SAEs attributed to drug (advanced solid tumors [2]; either study (monotherapy, 24 subjects; combination with cytotoxic agents, 42 subjects)) | additional toxicities when combined with standard cytotoxic chemotherapy (advanced solid tumors [2]; safety data of both studies) | potentiation of known toxicities of standard chemotherapeutic agents (advanced solid tumors [2]; safety data of both studies) | IC50 (Bcr-ab1) [nM] | inhibition of a panel of 63 other kinases, including native c-Ab1 [3] | toxicity towards cells not expressing Bcr-Ab1 [4] |
| --- | --- | --- | --- | --- | --- | --- | --- | --- | --- | --- | --- |
| NC(=O)c1ccc(I)c([N+](=O)[O-])c1 [4-iodo-3-nitrobenzamide] | stable disease present through at least cycle 2 of the study for six subjects | no dose limiting toxicities (DLTs) were observed at any dose level | 9 | well tolerated at all dose levels tested | deemed not related to study drug | no SAEs attributed to 4-iodo-3-nitrobenzamide in either study | would not cause any additional toxicities | no evidence that 4-iodo-3-nitrobenzamide would potentiate any known toxicities |  |  |  |
| NC(=O)c1cccc(-c2cc(Nc3ccc(OC(F)(F)F)cc3)ncn2)c1 [GNF-2] |  |  |  |  |  |  |  |  | 267 | does not inhibit | complete lack of toxicity |
